Entries after “also recorded” stand apart in the source; their conditions may differ.
Legend:
ARH-77 cells = experiment: ADCC, Calcein release with human NK cells, ARH-77; assay type: cell-based; settings: NK:target 10 to 1, 4 hours, read-out: ED50 (percent specific lysis)
Protocol: (§1) Human MM cell lines, KMS-12-BM, IM-9, and ARH-77, were washed 3 times using R2 medium (Pheno red-free RPMI with 2% FBS) and re-suspended in R10 medium (Pheno red-free RPMI with 10% FBS) at the density of 1×10^6/mL. Cells were labeled by adding Calcein AM (final concentration […]) and incubating for 30 minutes at 37° C. in a humidified atmosphere with 5% CO2. Purified human NK cells and Calcein-labeled target cells were mixed in R10 medium at the ratio of 10 to 1 (5×10^4 NK cells and 5×10^3 target cells in […]) and added in U-bottom 96 well plate (Packard's Instrument, Meriden, Conn.). […] 1% NP-40 was added in 3 wells for the maximum cell lysis. Cells were incubated for 4 hours without disturbance at 37° C. in a humidified atmosphere with 5% CO2. The plate was then centrifuged at 300 rpm without brake for 5 minutes. […] supernatant was transferred into a new 96 well plate. The released Calcein in the supernatant was measured in arbitrary fluorescent unit (AFU) at 485 nm excitation and 535 nm emission using Tecan SpectraFluor Plus (Tecan U.S., Inc., Research Triangle, N.C.). The percent of specific lysis was calculated as: 100×(AFU test−AFU spontaneous release)/(AFU maximal release−AFU spontaneous release).
(§2) The ED50 was determined for each cell line by plotting the log of antibody concentration versus the percent specific lysis (see FIG. 16).

[1] = tested on: CD40-expressing target cells; experiment: ADCC activity of anti-CD40 antibodies (Table 1); assay type: cell-based
[2] = tested on: cancer cells from NHL and CLL patients; experiment: In vitro CD40 ligand-mediated proliferation of patient cancer cells; assay type: cell-based, human
Text: 4, 2003, Nov. 26, 2003, and Apr. 27, 2004, and assigned U.S. Patent Application Nos. 60/517,337, 60/525,579, and 60/565,710, respectively, and International Patent Application No. PCT/US2004/037152, also entitled “Antagonist, Anti-CD40 Monoclonal Antibodies and Methods for Their Use,” filed Nov. 4, 2004; the contents of each of which are herein incorporated by reference in their entirety.

[3] = tested on: CLL cells obtained from patients with CLL; experiment: CD40L-induced production of VEGF in CLL cells; assay type: cell-based, human
Text: In another experiment, CD40L-induced production of VEGF in normal B cells and CLL cells obtained from patients with CLL is examined in a manner similar to that described above.

normal B cells = experiment: CD40L-induced cytokine secretion from normal B cells (Meso Scale Discovery); assay type: cell-based, human; settings: 10 μg/ml, 24 hours
Protocol: Cells (1×10^5 cells per well) were cultured in a 96-well plate in the presence or absence of CD40L (CD40 transfected, formaldehyde fixed CHO cells, 2×10^5 per well). […] Production of hIL-6, hIL-8, hIL-10, hTNF-α, hGM-CSF, hIL-1b, hIL-12p70, MCP-1, and MIP-1β was measured by Meso Scale Discovery® multi-array system (Meso Scale Discovery, Gaithersburg, Md.).

normal human B cells = experiment: Western blot of survival and signaling markers in normal human B cells; assay type: cell-based; settings: 10 μg/ml, 24 hr, 2 μg/ml rhsCD40L, vs hIgG1
Text: Cells were lysed and whole cell lysates resolved by SDS-PAGE and Western blotting using antibodies specific to human cPARP, Mcl-1, Bcl-xl, p-Akt, and p-p38 MAPK. All membranes were stripped and re-probed for either β-actin or AKT or p38 MAPK total protein, as appropriate.

IM-9 cells = experiment: ADCC, Calcein release with human NK cells, IM-9; assay type: cell-based; settings: NK:target 10 to 1, 4 hours, read-out: ED50 (percent specific lysis)
Protocol: as §1, §2

[4] = tested on: human lymphocytes from normal subjects; experiment: Proliferation of human lymphocytes; assay type: cell-based
B-CLL cells = experiment: p38 MAPK signaling in B-CLL cells, four-hour experiment; assay type: cell-based, human; settings: 4 hours
Protocol: In the four-hour experiment, approximately 0.8×10^6 B-CLL cells per well were serum starved in 1% FBS-containing media for 4 hours. […] Cell lysates were collected before and 20 minutes after CD40L stimulation. Western blot analysis with antibodies against specific proteins shown were conducted, and equal loading was evaluated by probing with antibodies to total p38 (t-p38) and β-actin.

[5] = tested on: IM-9 tumor cells (a human multiple myeloma cell line); experiment: Unstaged orthotopic IM-9 xenograft conditional survival model; assay type: in vivo, SCID mice; settings: 0.1, 1 or 10 mg/kg i.p. once a week from one day after implantation
[6] = tested on: B-CLL cells from patients; experiment: Western blot of apoptosis and survival biomarkers in sCD40L-stimulated B-CLL cells; assay type: cell-based, human
Protocol: In these experiments, 1.0×10^6 B-CLL cells from patients were stimulated with 1 μg/ml sCD40L (Alexis Corporation, Bingham, Noffinghamshire, UK). […] Cleaved PARP, which is a biomarker of apoptosis, and Bcl-xl, Bcl-2, and cIAP1, which are biomarkers of survival, were detected in cell lysates by Western blot analysis using commercially available antibodies specific for these biomarkers.
In these experiments, 1.0×10^6B-CLL cells from patients were stimulated with 1 μg/ml sCD40L (Alexis Corp., Bingham, Nottinghamshire, UK). […] Cells were collected at 22-24 hours. Western blot analysis with antibodies to cleaved PARP, caspase-3, and Bcl-xl were conducted on cell lysates. Antibody against β-actin was used for detecting equal loading and transfer efficiency.

soluble CD40 = soluble CD40 (Homo sapiens, UniProt P25942); experiment: ELISA-type binding to soluble CD40; settings: ELISA-type assays
Sequence of soluble CD40 (P25942 21-193 limits assumed): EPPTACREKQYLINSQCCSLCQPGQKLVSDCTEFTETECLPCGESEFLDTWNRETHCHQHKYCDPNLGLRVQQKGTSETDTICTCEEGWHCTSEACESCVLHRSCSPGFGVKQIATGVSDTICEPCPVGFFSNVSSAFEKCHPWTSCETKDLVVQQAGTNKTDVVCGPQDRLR
Text: 2, 2000, and PCT International Application No. PCT/US01/30857, also titled “Human Anti-CD40 Antibodies,” filed Oct. 2, 2001, both of which are herein incorporated by reference in their entirety.

[7] = patients #4 and #21, 10 μg/ml, 24 hours, 1 μg/ml sCD40L

“CHIR-12.12: fully human anti-CD40 monoclonal antibody of the IgG1 isotype from hybridoma cell line 153.8E2.D10.D6.12.12 (ATCC PTA-5543)” was tested. Which EC50 (ARH-77 cells) did it give?
Its EC50 is 0.0239 nM.

What about the “killing of CD40-expressing target cells by ADCC” value [1] of the same substance?
The value was “able to kill CD40-expressing target cells”.

What about the “effect on CD40 ligand-mediated proliferation of cancer cells” value [2] of the same substance?
Its value is “inhibiting in vitro CD40 ligand-mediated proliferation of cancer cells from NHL and CLL patients”.

What about the “CD40L-induced production of VEGF” value [3] of the same substance?
Its value is “inhibit CD40L-induced production of VEGF”.

What about the “cytokine production with antibody alone (agonistic activity)” value (normal B cells; absence of CD40L) of the same substance?
Its value is “did not produce any of the cytokines above background levels”.

What about the “inhibition of CD40L-induced MCP-1 secretion” value (normal B cells; Donor 1) of the same substance?
Its value is 55.3 % inhibition.

And the “inhibition of CD40L-induced MIP-1β secretion” value (normal B cells; Donor 1)?
Its value is 54.4 % inhibition.

And the “inhibition of CD40L-induced hIL-6 secretion” value (normal B cells; Donor 1)?
The value was 92.2 % inhibition.

And the “inhibition of CD40L-induced hIL-8 secretion” value (normal B cells; Donor 1)?
The value was 98.2 % inhibition.

And the “inhibition of CD40L-induced hIL-10 secretion” value (normal B cells; Donor 1)?
The value was 90.5 % inhibition.

What about the “inhibition of CD40L-induced hTNF-α secretion” value (normal B cells; Donor 1) of the same substance?
Its value is 92.8 % inhibition.

What about the “inhibition of CD40L-induced MIP-1β secretion” value (normal B cells; Donor 2) of the same substance?
The value was 92 % inhibition.

What about the “inhibition of CD40L-induced hIL-6 secretion” value (normal B cells; Donor 2) of the same substance?
The value was 99.9 % inhibition.

And the “inhibition of CD40L-induced hIL-8 secretion” value (normal B cells; Donor 2)?
Its value is 84.7 % inhibition.

And the “inhibition of CD40L-induced hTNF-α secretion” value (normal B cells; Donor 2)?
The value was 97.4 % inhibition.

And the “inhibition of CD40L-induced MCP-1 secretion” value (normal B cells; Donor 3)?
Its value is 25.7 % inhibition.

What about the “inhibition of CD40L-induced MIP-1β secretion” value (normal B cells; Donor 3) of the same substance?
The value was 92.5 % inhibition.

What about the “inhibition of CD40L-induced hIL-6 secretion” value (normal B cells; Donor 3) of the same substance?
Its value is 99.3 % inhibition.

What about the “inhibition of CD40L-induced hIL-8 secretion” value (normal B cells; Donor 3) of the same substance?
Its value is 99.5 % inhibition.

What about the “inhibition of CD40L-induced hIL-10 secretion” value (normal B cells; Donor 3) of the same substance?
The value was 94.4 % inhibition.

And the “inhibition of CD40L-induced hTNF-α secretion” value (normal B cells; Donor 3)?
Its value is 98.5 % inhibition.

And the “CD40L-mediated effects on cPARP, Mcl-1, Bcl-xl, p-Akt, p-p38” value (normal human B cells)?
Its value is “blocked these CD40L-mediated effects on normal B cells”.

What about the EC50 (IM-9 cells) of the same substance?
The EC50 was 0.0059 nM.

What about the CD40L-induced lymphocyte proliferation [4] of the same substance?
Its CD40L-induced lymphocyte proliferation is “inhibits CD40L-induced lymphocyte proliferation”.

And the “induction of lymphocyte proliferation (agonist activity)” value ([4]; antibody alone)?
Its value is “do not induce strong proliferation of human lymphocytes from normal subjects; also recorded: does not induce the proliferation of human peripheral blood lymphocytes”.

And the “Phospho-IKKα/β activation by CD40L” value (B-CLL cells; 10 μg/mL)?
Its value is “inhibited”.

And the “p38 activation by CD40L” value (B-CLL cells; SB203580 30 and 60 μM, CHIR-12.12 10 μg/mL)?
Its value is “fully inhibited”.

What about the “survival of tumor-bearing mice” value [5] of the same substance?
The value was “prolonged the survival of tumor-bearing mice”.

What about the “cleaved PARP, caspase-3 and Bcl-xl, dose response (Western blot)” value ([6]; 0-20 μg/ml, 22-24 hours, 1 μg/ml sCD40L) of the same substance?
The value was “induction of cleaved PARP and caspase-3 as well as reduction of Bcl-xl in a dose-dependent manner”.

And the “lowest dose with effect on cleaved PARP, caspase-3 and Bcl-xl” value ([6]; 22-24 hours, 1 μg/ml sCD40L)?
The value was ≥ 0.01 µg/mL.

And the “XIAP and Bcl-2 (Western blot)” value ([6]; patient #30, vs control IgG)?
The value was “reduced the expression of XIAP and Bcl-2”.

And the “cleaved PARP (Western blot)” value ([6]; patient #30, vs control IgG)?
The value was “induced the expression of cleaved PARP”.

What about the “cleaved PARP (Western blot)” value ([6]; patient #31, vs control IgG) of the same substance?
The value was “induced the expression of cleaved PARP”.

And the “cyclin D1 and Bcl-xl (Western blot)” value ([6]; patient #31, vs control IgG)?
Its value is “reduced the expression of cyclin D1 and Bcl-xl”.

And the “Bcl-2 and TRAIL level (Western blot)” value [6, 7]?
The value was “no changes of Bcl-2 and TRAIL level”.

And the “Bcl-xl, XIAP and cIAP1 (Western blot)” value [6, 7]?
Its value is “reduction of Bcl-xl, XIAP and cIAP1”.

And the “cleaved PARP (Western blot)” value ([6]; patients #4 and #21, 10 μg/ml, 24 hours, 1 μg/ml sCD40L, vs control IgG)?
The value was “induction of cleaved PARP”.

What about the “binding to soluble CD40” value (soluble CD40) of the same substance?
The value was “bind soluble CD40”.
